In patent US8580730B2, “Methods of treating lesional vestibular disorders by administering serotonin 5-HT3 receptor antagonists” ((INSERM) Institut National de la Sante et de la Recherche …, priority 2009, dated 2013):
Entries after “also recorded” stand apart in the source; their conditions may differ.

Legend:
[1] = test system: hair cells and synaptic terminals of vestibular sensory epithelia (utricles); assay: Histological and morphometric evaluation of kainate-induced vestibular lesions; format: in vivo, rat; settings: 4 mg/kg ip 1 h after KA
Method: 1 h after KA injection, vestibular behavior of the animals was tested followed by ondansetron injection in the treatment group. […] Subsequently, the animals were tested at 2 h, 6 h, 24 h and 48 h after KA injection. Histological and morphometric analysis were performed at 2 and 24 hours after KA injection in the presence and absence of ondansetron treatment.
Preparation of semi-thin sections of sensory epithelia. We anesthetized female adult rats (Wistar; 200-220 g; n=3 for each treatment) with pentobarbital (0.4%). Animals were perfused transcardially with heparin PBS (0.01M) followed by a fixative solution (2% paraformaldehyde, 2.5% glutaraldehyde 1% picric acid, 5% sucrose) and samples post-fixed. […] Whole vestibular organs were postfixed in 2% OsO4, dehydrated, embedded in Araldite, and 1 μm thick sections were cut. A Nanozoomer Slide Scanner (RIO imaging, Montpellier, France) allowed the observation and scanning of samples mounted on slides.
Scans of semi-thin sections acquired with the Nanozoomer Slide Scanner were analyzed. Quantification of hair cells in utricles was done with Metamorph software (Universal Imaging). For each lesioned and contralateral ear, 3 sections distant of 20 to 25 μm each were analyzed. Thus, 400 cells for each epithelium were counted for each treatment on 3 different animals with the contralateral ear as pooled control. […] ANOVA was used to search for statistical difference, followed by Tukey Test to compare between treatments.

[2] = Stability of solution comprising ondansetron base; format: physicochemical; settings: 1 month storage
Method: Chemical stability of the solution was also assessed: […]

[3] = test system: patients with suspicion of vestibular neuritis; assay: Clinical study of vestibular deficit following acute vestibular neuritis (VNG, hospitalization, first walk); format: in vivo, human; settings: 5 days treatment, ondansetron 8 mg/d vs metoclopramide 30 mg/d, n=10 each; for vestibular deficit, VNG at 1 month / vestibular deficit, early VNG (caloric tests): with methylprednisolone and valacyclovir; for vestibular deficit, VNG at 1 month: p=0.07; for vestibular deficit, early VNG (caloric tests): VNG 24 to 48 hours after beginning of deficit; for vestibular deficit, early VNG (caloric tests) / hospitalization duration: p=0.03; for time of first walk: p=0.001
Method: Methods: A clinical study conducted by the inventors at the Centre Hospitalier Universitaire (CHU) of Montpellier was carried out. Random clinical tests were performed on 20 patients. Patients were selected on the suspicion of vestibular neuritis started for less than 24 h before the hospitalization. The patients were all administered with methylprednisolone and valacyclovir, and either a 5 days treatment with Metoclopramide (30 mg/d, n=10) or with Ondansetron (8 mg/d, n=10). The functional evaluation was based on a early VNG (vestibulonystagmography) test (realized 24 to 48 hours after the beginning of the vestibular deficit) and a VNG at 1 month. The hospitalization duration and the date of the first walk were also recorded.

[4] = test system: IDPN-induced bilateral vestibular deficit; assay: Behavioral evaluation of bilateral (nitrile, IDPN)-induced vestibular deficit; format: in vivo, rat
Excerpt: Vestibular rating score was estimated as previously described (Brugeaud et al., 2007; Boadas-Vaello et al. 2005). Animals were scored from range 0 to 4, respectively corresponding to normal behavior to maximal vestibular deficit. Rating 1 means that the behavior is not normal but no specific vestibular deficit is effectively determined; rating 2 corresponds to an identified but slight vestibular deficit and, rating 3 describes an identified and evident deficit. Six different tests were sequentially scored and totalized to rate the vestibular deficit: 1—the head bobbing, when abnormal intermittent backward extension of the neck was observed; 2—the circling stereotyped movement ranging from none to compulsive circles around the animal hips; 3—the retro-pulsion, a typical backward walk reflecting vestibular disturbance; 4—the tail-hanging reflex, that normally induces a normal forelimb extension to reach the ground, results in the ventral bent of the body and grip of the tail when the vestibular deficit is maximal; 5—the contact-inhibition reflex normally leads animal hold to a metal grid in a subpine position to return when their back touch the ground; in case of vestibular deficit with a lack in the body orientation referential, this reflex is abolished, the animal stays griped to the grid in a supine position; 6—the air-righting reflex is necessary for animals to land on their feet when they fall from a supine position; vestibular dysfunction impairs this normal reversal, a maximal deficit leads the animal to land on its back when dropped from a height of 40 cm onto a foam cushion. Vestibular rating scores were expressed for each time point as a percentage of the t0 score.
Validation of the restorative effect of said serotonin 5-HT3 antagonist is also assessed on animal model of bilateral vestibular deficit by analysing the time course of arrival and removal of both excitotoxic lesions and ensuing vestibular deficit following intoxication with nitriles (IP injection—Seoane et al., J. Comp. Neurol. 2001, 439:385-399). […] Protection is assessed by administration of said serotonin 5-HT3 antagonist following different schedules (at the start of chronic intoxication; 24 and 48 h after).
IDPN (1 g/kg; ip) induces bilateral and permanent vestibular damage through destruction of the vestibular sensory epithelium. […] We assessed the effect of IDPN injection using behavioral testing of vestibular deficits. We evaluated the protective effect of single or double injections of ondansetron throughout the time course of injury progression following IDPN injection to determine the vestibuloprotective potential of ondansetron. […]

[5] = test system: kainate-induced unilateral vestibular deficit; assay: Behavioral evaluation of excitotoxically (kainate)-induced unilateral vestibular deficit; format: in vivo, rat; settings: 4 mg/kg ip 1 h after transtympanic KA injection; 24 h after KA; vs untreated; p=0.022 Mann Whitney
Method: Validation of the restorative effect of said serotonin 5-HT3 antagonist is assessed by analysing the time course of arrival and removal of both excitotoxic lesions and ensuing vestibular deficit that occur within vestibular endorgans during intra auricular application of glutamate agonists. In the vestibular endorgans, massive application of kainic acid induces excitotoxic impairments of the neuronal network in the sensory organs (swelling of terminals that contact hair cells-Brugeaud et al., 2007). Histological studies of the expansion and reduction of excitotoxic lesions are undertaken using light and electron microscopy. Behavioural evaluation of vestibular deficit is undertaken using specific behavioural tests of the vestibular function. Under the paradigm developed in the rat, transtympanic application of kainic acid allows its diffusion into the inner ear. […] We evaluate the effect of KA injection using behavioral testing of vestibular deficits and histological quantification of the induced lesion. […] Animals were scored from range 0 to 4, respectively corresponding to normal behavior to maximal vestibular deficit. Rating 1 means that the behavior is not normal but no specific vestibular deficit is effectively determined; rating 2 corresponds to an identified but slight vestibular deficit and, rating 3 describes an identified and evident deficit. […]

Row | SMILES | number of not-determined hair cells ([1]; 24 hrs after the KA lesion, P<0.01) | number of type I hair cells ([1]; 24 hrs after the KA lesion, p<0.01) | maturation of neo-formed synaptic terminals (photonic microscopy) ([1]; 24 hrs after the lesion) | chemical degradation with pH modification [2] | vestibular deficit, VNG at 1 month [3] | vestibular deficit, VNG at 1 month ([3]; listed as O) | vestibular deficit, early VNG (caloric tests) [3] | time of first walk [3] | hospitalization duration [3] | time course of increasing vestibular deficits ([4]; 1 dose 4 mg/kg ip 24 h after IDPN injection) | time course of increasing vestibular deficits ([4]; 1 dose 4 mg/kg ip 48 h after IDPN injection) | time course of increasing vestibular deficits ([4]; 1 dose 4 mg/kg ip simultaneously with IDPN 1 g/kg ip) | time course of increasing vestibular deficit / vestibular deficits at 54 h ([4]; 2 doses 4 mg/kg ip 24 and 48 hours after IDPN injection, at 54 h, 4 mg/kg) | vestibular deficits (vestibular rating score) at 24 hours [5] | vestibular deficit, VNG at 1 month ([3]; listed as M) | vestibular deficit, early VNG (caloric tests) ([3]; listed as metoclopramid)
1 | Cc1nccn1CC1CCc2c(c3ccccc3n2C)C1=O (centres unmarked) [Ondansetron, 1,2,3,9-tetrahydro-9-methyl-3-[(2-methyl-1H-imidazol-1-yl)methyl]-4H-carbazol-4-one] | significantly reduced | significantly increased | seemed to potentiate | not associated to significant chemical degradation | 43,0% | 43% | 56,53% | 1.25 days | 2.88 days | not significantly altered | not significantly altered | not significantly altered | significant modification; also recorded: significantly less severe | significantly reduced | – | –
2 | CCN(CC)CCNC(=O)c1cc(Cl)c(N)cc1OC [Metoclopramide] | – | – | – | – | 63,4% | – | 84.38% | 2.25 days | 4.5 days | – | – | – | – | – | 63.4% | 84,38%
